What all share (assay): ≥ marks a high value that may be exact or a test limit, other limits are often not marked, values filed in µg/mL are converted to µM
The subject of assay [1] is Lacticaseibacillus rhamnosus 1.9021.
Assay [2] has as its system Lacticaseibacillus rhamnosus 1.0936.
The subject of assay [3] is Lacticaseibacillus rhamnosus 8014.
The test system of assay [4] is Streptococcus agalactiae BNCC 185941.
For assay [5], the system named is Pseudomonas aeruginosa ATCC 27853.
The subject of assay [6] is Staphylococcus epidermidis ATCC 12228.
The test system of assay [7] is Pseudomonas aeruginosa PAO1.
In assay [8] the test system is Salmonella enterica subsp. enterica serovar Choleraesuis CVCC 503.
Assay [9] concerns Salmonella enterica subsp. enterica serovar Typhimurium ATCC 14028.
Assay [10] concerns Lacticaseibacillus rhamnosus 1.0911.
Assay [11] relates to Escherichia coli K88.
For assay [12], the system named is Escherichia coli O157:H7 CICC 21530.
For assay [13], the system named is Staphylococcus aureus ATCC 29213.
In assay [14] the test system is Salmonella enterica subsp. enterica serovar Pullorum C79-13.
Assay [15] concerns Staphylococcus aureus ATCC 43300.
Assay [16] deals with Escherichia coli ATCC 25922.
The test system of assay [17] is Legionella pneumophila Lens.
The test system of assay [18] is Escherichia coli K12 MG1655.
The test system of assay [19] is Escherichia coli DH5alpha.
The test system of assay [20] is Pseudomonas aeruginosa PA14.
For assay [21], the system named is Micrococcus luteus A270.
Assay [22] concerns Staphylococcus pseudintermedius.
Assay [23] has as its system Pseudomonas aeruginosa.
Assay [24] deals with Salmonella typhimurium CCRC 12947.
The subject of assay [25] is Staphylococcus aureus CCRC 12652.
The test system of assay [26] is Lactobacillus delbrueckii subsp. bulgaricus.
For assay [27], the system named is Klebsiella pneumoniae CCRC 10694.
For assay [28], the system named is Bifidobacterium adolescentis.
The test system of assay [29] is Staphylococcus xylosus.
Assay [30] deals with Salmonella enterica.
Assay [31] deals with Escherichia coli JM109.
In assay [32] the test system is Enterococcus faecium.
The test system of assay [33] is Vibrio parahaemolyticus CCRC 10806.
The test system of assay [34] is Citrobacter koseri.
In assay [35] the test system is Escherichia coli BL21.
The subject of assay [36] is Staphylococcus aureus CCRC 15211.

SMILES strings stand for the structures. ≈ marks a conversion by molar mass, not a printed value. Where “and” joins values, the source holds several entries; their conditions need not be identical. Identical values can stand only once.

In general, MIC refers to the least concentration at which growth counts as inhibited.

Turning to `CC(C)C[C@H](NC(=O)CNC(=O)[C@H](CC(C)C)NC(=O)[C@H](CS)NC(=O)[C@H](CC(C)C)NC(=O)CNC(=O)[C@H](CC(C)C)NC(=O)[C@H](CCCCN)NC(=O)[C@@H](N)CCCCN)C(=O)N[C@@H](CCCCN)C(=O)N[C@@H](CCCCN)C(N)=O` [KKLGLCLGLKK], the MIC in [1] was at least 32 µM; in assay [2], at least 128 µM; in [3], at least 64 µM; in assay [4], at least 128 µM; in assay [5], 64 µM (≈ 76.8 µg/mL); in assay [6] it was 128 µM (≈ 154 µg/mL). Besides, the MIC in assay [7] was 32 µM (≈ 38.4 µg/mL); in assay [8] it was at least 64 µM; in assay [9] it was 64 µM (≈ 76.8 µg/mL); in assay [10] it was 16 µM (≈ 19.2 µg/mL); in assay [11] it was 16 µM (≈ 19.2 µg/mL); in assay [12] it was 16 µM (≈ 19.2 µg/mL). Moreover, the MIC was 128 µM (≈ 154 µg/mL) in assay [13]; 8 µM (≈ 9.6 µg/mL) in assay [14]; 64 µM (≈ 76.8 µg/mL) in [15]; 32 µM and 64 µM in assay [16].

Compound `CC[C@H](C)[C@H](NC(=O)[C@H](CC(C)C)NC(=O)CNC(=O)[C@H](CCCCN)NC(=O)[C@@H](NC(=O)[C@@H](NC(=O)[C@H](CCC(=O)O)NC(=O)[C@H](Cc1ccccc1)NC(=O)[C@H](Cc1ccccc1)NC(=O)[C@H](CCCCN)NC(=O)[C@H](C)NC(=O)[C@@H](NC(=O)[C@@H](NC(=O)[C@H](CC(=O)O)NC(=O)[C@H](C)NC(=O)[C@@H](N)CCSC)C(C)C)[C@@H](C)CC)[C@@H](C)CC)C(C)C)C(=O)N[C@@H](CC(=O)O)C(=O)N[C@@H](CCC(N)=O)C(=O)N[C@@H](Cc1ccccc1)C(=O)N[C@H](C(=O)N[C@@H](CCC(N)=O)C(=O)N[C@@H](CCCCN)C(=O)O)[C@@H](C)O` [MADVIAKFFEIVKGLIDQFTQK] returned a minimum inhibitory concentration (MIC) in [17] of 2.44 µM (≈ 6.2 µg/mL).

With `CC(C)C[C@H](NC(=O)CNC(=O)[C@@H](NC(=O)[C@H](CC(C)C)NC(=O)[C@H](C)NC(=O)[C@@H](N)C(C)C)[C@@H](C)O)C(=O)N[C@H](C(=O)N[C@H](C(=O)N[C@@H](C)C(=O)N[C@@H](CCC(=O)O)C(=O)N[C@@H](Cc1ccc(O)cc1)C(=O)N[C@@H](Cc1ccccc1)C(=O)N[C@@H](CCCN=C(N)N)C(=O)O)C(C)C)[C@@H](C)O` [VALTGLTVAEYFR], the MIC in assay [18] was found to be 7.8 µM (≈ 11.2 µg/mL); in assay [19], 3.9 µM (≈ 5.61 µg/mL); in assay [5], 7.8 µM (≈ 11.2 µg/mL); in assay [20], 15.6 µM (≈ 22.5 µg/mL); in assay [13], 3.9 µM (≈ 5.61 µg/mL); in [21], 1.9 µM (≈ 2.74 µg/mL).

As to `CC(=O)N[C@@H](CCCN=C(N)N)C(=O)N[C@@H](CCCN=C(N)N)C(=O)N[C@@H](CCCN=C(N)N)C(=O)N[C@@H](Cc1c[nH]c2ccccc12)C(=O)N[C@@H](CCCN=C(N)N)C(=O)N[C@@H](CCCCN)C(=O)N[C@@H](CCCN=C(N)N)C(=O)N[C@@H](CCCN=C(N)N)C(=O)N[C@@H](Cc1c[nH]c2ccccc12)C(=O)N[C@@H](Cc1c[nH]c2ccccc12)C(=O)N[C@@H](Cc1c[nH]c2ccccc12)C(N)=O` [RRRWRKRRWWW], the MIC turned out to be 24.8 µM (≈ 46.3 µg/mL) in assay [22], 24.8 µM (≈ 46.3 µg/mL) in assay [23], 17.5 µM (≈ 32.7 µg/mL) in assay [5] and 17.5 µM (≈ 32.7 µg/mL) in assay [13].

`CC[C@H](C)[C@H](NC(=O)[C@H](CO)NC(=O)[C@H](CCCCN)NC(=O)[C@H](Cc1c[nH]c2ccccc12)NC(=O)[C@H](CCCCN)NC(=O)[C@@H](N)CC(C)C)C(=O)N[C@H](C(=O)N[C@@H](CO)C(=O)N[C@@H](Cc1c[nH]c2ccccc12)C(=O)N[C@@H](C)C(=O)N[C@@H](CCCCN)C(=O)N[C@@H](CCCCN)C(=O)N[C@H](C(=O)N[C@@H](CC(C)C)C(N)=O)C(C)C)C(C)C` [LKWKSIVSWAKKVL]: the MIC in [24] was 2.37 µM (≈ 4 µg/mL); in assay [25], 3.35 µM (≈ 5.65 µg/mL); in assay [23], 26.8 µM (≈ 45.2 µg/mL); in assay [26], at least 75.9 µM; in [27], 4.74 µM (≈ 8 µg/mL); in assay [28], at least 75.9 µM. The MIC was 0.296 µM (≈ 0.5 µg/mL) in assay [29]; 3.35 µM (≈ 5.65 µg/mL) in assay [30]; 0.593 µM (≈ 0.999 µg/mL) in [31]; at least 75.9 µM in assay [32]; 2.37 µM (≈ 4 µg/mL) in [33]; 0.839 µM (≈ 1.41 µg/mL) in [34]. In addition, the MIC in [35] turned out to be 1.68 µM (≈ 2.83 µg/mL); in [36] it was 3.35 µM (≈ 5.65 µg/mL).

The record behind these values is DBAASP.
